# Assay results published in patent US20220280614A1 (CASE WESTERN RESERVE UNIVERSITY, priority 2019, published 2022).
# Test system: male Sprague-Dawley rats (ca. 300 g) rendered diabetic by streptozotocin
# Assay: Biological activity and pharmacodynamics (blood glucose over time) after subcutaneous injection in diabetic rats
# Assay type: in vivo, rat
# Settings: premixed clear solution of SCI-A and SCI-B, unbuffered, pH 4.0, FIGS. 8-10
# Procedure: FIG. 7 is a graph showing blood glucose levels over time for diabetic rats (time 0 blood glucose of 375±20 mg/dl) injected subcutaneously with indicated analogue/300 g body weight.
# FIG. 8 is a graph showing blood glucose levels over time for diabetic rats (time 0 blood glucose of 350-400 [±20 mg/dl]) injected subcutaneously with 1 unit of the indicated analog/300 g body weight. ( ? ) diluent control; (●) an SCI-A (SEQ ID NO: 5); (●) an example of an SCI-B (SEQ ID NO: 6) as formulated at neutral pH; and (♦) equimolar premixed clear solution of this SCI-A and this specific SCI-B as formulated in soluble form in an unbuffered solution at pH 4.0. Respective doses: 20 μg of each protein per 300 gram rat (singly); 20 μg and 20 μg in the case of the premixed solution to a total [SCI-A+SCI-B] combined dose of 40 μg.
# FIG. 9 is a graph showing blood glucose levels over time for diabetic rats (time 0 blood glucose of 400±20 mg/dl) injected subcutaneously with indicated analogue/300 g body weight. […] Respective doses: 0.75 units SCI-A, 0.25 units SCI-B; and premixture of 0.75 units SCI-A and 0.25 units SCI-B.
# FIG. 10 is a graph showing blood glucose levels over time for diabetic rats (time 0 blood glucose of 385±20 mg/dl) injected subcutaneously with indicated analogue/300 g body weight. […] Respective doses: 0.75 units SCI-A, 0.25 units SCI-B; and premixture of 0.75 units SCI-A and 0.25 units SCI-B.
# Biological activity and pharmacodynamics were tested in male Sprague-Dawley rats (ca. 300 g) rendered diabetic by streptozotocin (FIG. 7).
# Each of the three SCI-B analogues contained a six-residue C domain and an A-domain substitution known in the art to enhance stability and receptor-binding affinity (HisA8). The first SCI-B (SEQ ID NO: 6; FIG. 8) contained C domain sequence EEGPRR (positions 31-36). This analogue also contained insulin-moiety substitutions GluA14 and GluB29. The second example of an SCI-B (SEQ ID NO: 7; FIG. 9) contained C domain sequence EAAAAA (positions 31-36) and insulin-moiety substitutions GluA14, AspB28 and ProB29. […]
row,Substance,effect of premixed SCI-A (SEQ ID NO: 5) on the rapid initial phase of insulin action of the SCI-B component
1,"SEQ ID NO: 7: single-chain insulin analogue SCI-B, C domain EAAAAA, substitutions GluA14, AspB28 and ProB29 (FVNQHLCGSHLVEALYLVCGERGFFYTDPTEAAAAAGIVEQCCTSICSLEQLENYCN)",did not blunt or prevent the premixed SCI-B component from directing a rapid initial phase of insulin action
2,"SEQ ID NO: 6: single-chain insulin analogue SCI-B, C domain EEGPRR, substitutions GluA14 and GluB29; rapid-acting component (FVNQHLCGSHLVEALYLVCGERGFFYTPETEEGPRRGIVEQCCTSICSLEQLENYCN)",did not blunt or prevent the premixed SCI-B component from directing a rapid initial phase of insulin action
3,"SEQ ID NO: 8: single-chain insulin analogue SCI-B, C domain EAAARA, substitutions GluA14, AspB28 and ProB29 (FVNQHLCGSHLVEALYLVCGERGFFYTDPTEAAARAGIVEQCCTSICSLEQLENYCN)",did not blunt or prevent the premixed SCI-B component from directing a rapid initial phase of insulin action
